# Measurements reported in ChEMBL document CHEMBL4152293, “Synthesis and biological evaluation of podophyllotoxin derivatives as selective antitumor agents” (Eur J Med Chem, 2018).
# Legend:
# A549 [1] = test: Induction of apoptosis in human A549 cells assessed as early apoptotic cells at 200 nM after 72 hrs by annexin V-FITC/propidium iodide staining-based flow cytometric method (reference value: 3%); type: functional
# L02 [2] = test: Induction of apoptosis in human L02 cells assessed as late apoptotic cells at 10 nM after 72 hrs by annexin V-FITC/propidium iodide staining-based flow cytometric method (reference value: 1.6%); type: cell-based; conditions: l02, 72 h, 0.01 µM
# L02 [3] = test: Induction of apoptosis in human L02 cells assessed as late apoptotic cells at 200 nM after 72 hrs by annexin V-FITC/propidium iodide staining-based flow cytometric method (reference value: 1.6%); type: cell-based; conditions: l02, 72 h, 0.2 µM
# A549 [4] = test: Cell cycle arrest in human A549 cells assessed as accumulation at G2/M phase at 100 nM after 72 hrs by propidium iodide staining-based flow cytometric method (reference value: 14.23%); type: functional
# L02 [5] = test: Induction of apoptosis in human L02 cells assessed as early apoptotic cells at 200 nM after 72 hrs by annexin V-FITC/propidium iodide staining-based flow cytometric method (reference value: 2%); type: cell-based; conditions: l02, 72 h, 0.2 µM
# L02 [6] = test: Cell cycle arrest in human L02 cells assessed as accumulation at G0/G1 phase at 10 nM after 72 hrs by propidium iodide staining-based flow cytometric method (reference value: 57.34%); type: ADME; conditions: l02, 72 h, 0.01 µM
# A549 [7] = test: Cell cycle arrest in human A549 cells assessed as accumulation at G2/M phase at 5 nM after 72 hrs by propidium iodide staining-based flow cytometric method (reference value: 14.23%); type: functional
# A549 [8] = test: Induction of apoptosis in human A549 cells assessed as late apoptotic cells at 200 nM after 72 hrs by annexin V-FITC/propidium iodide staining-based flow cytometric method (reference value: 4.1%); type: functional
# HepG2 = test: Cytotoxicity against human HepG2 cells assessed as growth inhibition after 72 hrs by MTT assay; type: functional, cell-based; conditions: HepG2, 72 h
# A549 [9] = test: Cytotoxicity against human A549 cells assessed as growth inhibition after 72 hrs by MTT assay; type: functional, cell-based; conditions: A549, 72 h
# L02 [10] = test: Induction of apoptosis in human L02 cells assessed as necrotic cells at 200 nM after 72 hrs by annexin V-FITC/propidium iodide staining-based flow cytometric method (reference value: 0%); type: cell-based; conditions: l02, 72 h, 0.2 µM
# A549 [11] = test: Cell cycle arrest in human A549 cells assessed as accumulation at G0/G1 phase at 100 nM after 72 hrs by propidium iodide staining-based flow cytometric method (reference value: 61.29%); type: functional
# L02 [12] = test: Cell cycle arrest in human L02 cells assessed as accumulation at S phase at 10 nM after 72 hrs by propidium iodide staining-based flow cytometric method (reference value: 25.78%); type: ADME; conditions: l02, 72 h, 0.01 µM
# A549 [13] = test: Induction of apoptosis in human A549 cells assessed as necrotic cells at 200 nM after 72 hrs by annexin V-FITC/propidium iodide staining-based flow cytometric method (reference value: 0.1%); type: functional
# A549 [14] = test: Cell cycle arrest in human A549 cells assessed as accumulation at S phase at 5 nM after 72 hrs by propidium iodide staining-based flow cytometric method (reference value: 24.48%); type: functional
smiles,measurement,setting,value
COc1cc([C@@H]2c3cc4c(cc3[C@H](OC(=O)CN(C)C(=O)OC(C)(C)C)[C@H]3COC(=O)[C@H]23)OCO4)cc(OC)c1OC,Activity,A549 [1],92.8%
same,Activity,L02 [2],1.6%
same,Activity,L02 [3],3.1%
same,Activity,A549 [4],17.14%
same,Activity,L02 [5],65%
same,Activity,L02 [6],62.3%
same,Activity,A549 [7],13.74%
same,Activity,A549 [8],2.1%
same,IC50,HepG2,96.4 nM
same,IC50,A549 [9],9.5 nM
same,Activity,L02 [10],0.1%
same,Activity,A549 [11],36.73%
same,Activity,L02 [12],24.59%
same,Activity,A549 [13],0%
same,Activity,A549 [14],26.07%
